According to patent publication US9090596B2, “Disubstituted 3,4-diamino-3-cyclobutene-1,2-dione compounds for use in the treatment of chemokine-mediated pathologies” (GALDERMA RESEARCH & DEVELOPMENT, priority 2011, dated 2015):

Columns and labels:
[1] = target: CXCR1 receptor (Homo sapiens (Human), UniProt P25024); assay: β-arrestin 2 recruitment test, U2OS hCXCR1 β-arrestin cells stimulated with CXCL8; assay type: cell-based; conditions: CXCL8 stimulation
Method: (§1) The in vitro affinity of the compounds of the present invention for the CXCR1 and CXCR2 receptors was determined on a functional test of the β-arrestin recruitment type after receptor activation.
(§2) β-Arrestin Recruitment Assay:
(§3) “PathHunter HEK293-CXCR2” or “U2OS hCXCR1 β-arrestin” cells (DiscoveRx Corporation) were seeded overnight at 10 000 cells/well (384-well format) in 20 μl of Opti MEM I medium. A preincubation with the antagonist or the vehicle for 30 min at 37° C. and 5% CO2 was followed by 60 minutes of stimulation with CXCL8 at 37° C. and 5% CO2. The cells were then placed at ambient temperature for 30 minutes. The PathHunter detection reagent (DiscoveRx Corporation) was added. […] The data were analyzed by means of a non-linear curve procedure using the XLFit4 exploitation software (IDBS) and the IC50 values were determined.

[2] = target: CXCR2 receptor (Homo sapiens (Human), UniProt P25025); assay: β-arrestin 2 recruitment test, PathHunter HEK293-CXCR2 cells stimulated with CXCL8; assay type: cell-based; conditions: CXCL8 stimulation
Method: as §1, §2, §3

Chain of CXCR2 receptor (P25025 whole entry): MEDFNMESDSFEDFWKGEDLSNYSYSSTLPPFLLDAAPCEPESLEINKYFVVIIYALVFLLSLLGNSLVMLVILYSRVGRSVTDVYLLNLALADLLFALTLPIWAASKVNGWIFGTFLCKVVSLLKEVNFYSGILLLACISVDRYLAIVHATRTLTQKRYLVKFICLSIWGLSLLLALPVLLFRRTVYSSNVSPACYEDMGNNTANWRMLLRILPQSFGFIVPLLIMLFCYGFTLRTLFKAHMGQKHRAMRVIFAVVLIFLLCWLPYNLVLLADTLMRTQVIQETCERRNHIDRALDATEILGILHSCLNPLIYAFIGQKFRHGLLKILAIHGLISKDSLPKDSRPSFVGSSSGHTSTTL
Chain of CXCR1 receptor (P25024 whole entry): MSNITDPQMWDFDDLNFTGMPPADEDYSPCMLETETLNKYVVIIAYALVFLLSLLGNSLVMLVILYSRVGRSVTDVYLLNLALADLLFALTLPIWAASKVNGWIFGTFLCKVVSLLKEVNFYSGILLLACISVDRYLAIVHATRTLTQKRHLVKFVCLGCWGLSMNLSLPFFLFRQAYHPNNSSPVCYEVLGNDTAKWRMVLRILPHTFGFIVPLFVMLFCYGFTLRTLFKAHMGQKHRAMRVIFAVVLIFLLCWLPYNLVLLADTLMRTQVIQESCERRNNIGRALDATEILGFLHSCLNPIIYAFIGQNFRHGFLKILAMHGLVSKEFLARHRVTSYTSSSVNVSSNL

| IC50 [1] [nM] | IC50 [2] [nM] | SMILES |
| --- | --- | --- |
| 1150 | 106 | CCC1(C(Nc2c(Nc3cccc(C(=O)N(C)C)c3O)c(=O)c2=O)c2ccc(C)o2)COC1 (stereo not shown) [Example 3, 3-(2-{[(3-ethyloxetan-3-yl)-(5-methylfuran-2-yl)methyl]amino}-3,4-dioxocyclobut-1-enylamino)-2-hydroxy-N,N-dimethylbenzamide] |
| 2620 | 341 | Cc1ccc(C(Nc2c(Nc3cccc(C(=O)N4CC[C@@H](O)C4)c3O)c(=O)c2=O)C2(C)COC2)o1 (stereo partly drawn) [Example 5, 3-[2-hydroxy-3-((R)-3-hydroxypyrrolidine-1-carbonyl)phenylamino]-4-{[(5-methylfuran-2-yl)-(3-methyloxetan-3-yl)methyl]amino}cyclobut-3-ene-1,2-dione] |
| 2840 | 1090 | Cc1ccc(C(Nc2c(Nc3cccc(C(=O)N4CC[C@H](O)C4)c3O)c(=O)c2=O)C2(C)COC2)o1 (stereo partly drawn) [Example 6, 3-[2-hydroxy-3-((S)-3-hydroxypyrrolidine-1-carbonyl)phenylamino]-4-{[(5-methylfuran-2-yl)-(3-methyloxetan-3-yl)methyl]amino}cyclobut-3-ene-1,2-dione] |
| 666 | 60 | COC(=O)[C@@H]1CCCN1C(=O)c1cccc(Nc2c(N[C@@H](c3ccc(C)o3)C3(C)COC3)c(=O)c2=O)c1O [Example 9, methyl (S)-1-[2-hydroxy-3-(2-{[(R)-(5-methylfuran-2-yl)-(3-methyloxetan-3-yl)methyl]amino}-3,4-dioxocyclobut-1-enylamino)benzoyl]pyrrolidine-2-carboxylate] |
| 1300 | 262 | Cc1ccc(C(Nc2c(Nc3cccc(C(=O)N4CCCC4)c3O)c(=O)c2=O)C2(C)COC2)o1 (stereo not shown) [Example 14, 3-[2-hydroxy-3-(pyrrolidine-1-carbonyl)phenylamino]-4-{[(5-methylfuran-2-yl)-(3-methyloxetan-3-yl)methyl]amino}cyclobut-3-ene-1,2-dione] |
| 3170 | 626 | Cc1ccc(C(Nc2c(Nc3cccc(C(=O)N4CCOCC4)c3O)c(=O)c2=O)C2(C)COC2)o1 (stereo not shown) [Example 15, 3-[2-hydroxy-3-(morpholine-4-carbonyl)phenylamino]-4-{[(5-methylfuran-2-yl)-(3-methyloxetan-3-yl)methyl]amino}cyclobut-3-ene-1,2-dione] |
| 4960 | 394 | Cc1ccc(C(Nc2c(Nc3cccn(C)c3=O)c(=O)c2=O)C2(C)COC2)o1 (stereo not shown) [Example 19, 3-{[(5-methylfuran-2-yl)-(3-methyloxetan-3-yl)methyl]amino}-4-(1-methyl-2-oxo-1,2-dihydropyridin-3-ylamino)cyclobut-3-ene-1,2-dione] |
| 6620 | 335 | Cc1ccc(C(Nc2c(Nc3cccnc3O)c(=O)c2=O)C2(C)COC2)o1 (stereo not shown) [Example 20, 3-(2-hydroxypyridin-3-ylamino)-4-{[(5-methylfuran-2-yl)-(3-methyloxetan-3-yl)methyl]amino}-cyclobut-3-ene-1,2-dione] |
| 5540 | 475 | COc1cccc(C(Nc2c(Nc3cccc(C(=O)N(C)C)c3O)c(=O)c2=O)C2(C)COC2)c1 (stereo not shown) [Example 28, 3-(2-{[(3-methyloxetan-3-yl)-(3-methoxyphenyl)methyl]-amino}-3,4-dioxocyclobut-1-enylamino)-2-hydroxy-N,N-dimethylbenzamide] |
|  | 433 | COc1ccc(C(Nc2c(Nc3cccc(C(=O)N(C)C)c3O)c(=O)c2=O)C2(C)COC2)cc1 (stereo not shown) [Example 29, 3-(2-{[(3-methyloxetan-3-yl)-(4-methoxyphenyl)methyl]amino}-3,4-dioxocyclobut-1-enylamino)-2-hydroxy-N,N-dimethylbenzamide] |
| 2240 | 349 | CN(C)C(=O)c1cccc(Nc2c(NC(c3ccc4c(c3)OCO4)C3(C)COC3)c(=O)c2=O)c1O (stereo not shown) [Example 30, 3-(2-{[benzo[1,3]dioxol-5-yl-(3-methyloxetan-3-yl)methyl]amino}-3,4-dioxocyclobut-1-enylamino)-2-hydroxy-N,N-dimethylbenzamide] |
| 1610 | 106 | CN(C)C(=O)c1cccc(Nc2c(NC(c3cccs3)C3(C)COC3)c(=O)c2=O)c1O (stereo not shown) [Example 34, 2-hydroxy-N,N-dimethyl-3-(2-{[(3-methyloxetan-3-yl)thiophen-2-ylmethyl]amino}-3,4-dioxocyclobut-1-enylamino)benzamide] |
| 1710 | 198 | CN(C)C(=O)c1cccc(Nc2c(NC(c3ccco3)C3(C)COC3)c(=O)c2=O)c1O (stereo not shown) [Example 36, 3-(2-{[furan-2-yl-(3-methyloxetan-3-yl)methyl]amino}-3,4-dioxocyclobut-1-enylamino)-2-hydroxy-N,N-dimethylbenzamide] |
| 827 | 32 | Cc1coc(C(Nc2c(Nc3cccc(C(=O)N(C)C)c3O)c(=O)c2=O)C2(C)COC2)c1 (stereo not shown) [Example 37a, 2-hydroxy-N,N-dimethyl-3-(2-{[(4-methylfuran-2-yl)-(3-methyloxetan-3-yl)methyl]amino}-3,4-dioxocyclobut-1-enylamino)benzamide] |
| 7690 | 207 | Cc1ccoc1C(Nc1c(Nc2cccc(C(=O)N(C)C)c2O)c(=O)c1=O)C1(C)COC1 (stereo not shown) [Example 37b, 2-Hydroxy-N,N-dimethyl-3-(2-{[(3-methylfuran-2-yl)-(3-methyloxetan-3-yl)methyl]amino}-3,4-dioxocyclobut-1-enylamino)benzamide] |
| 322 | 25 | CC(C)c1coc(C(Nc2c(Nc3cccc(C(=O)N(C)C)c3O)c(=O)c2=O)C2(C)COC2)c1 (stereo not shown) [Example 38, 2-hydroxy-N,N-dimethyl-3-(2-{[(4-isopropylfuran-2-yl)-(3-methyloxetan-3-yl)methyl]amino}-3,4-dioxocyclobut-1-enylamino)benzamide] |
| 10000 | 1040 | COc1ccc(Nc2c(NC(c3ccc(C)o3)C3(C)COC3)c(=O)c2=O)c(O)n1 (stereo not shown) [Example 39, 3-(2-hydroxy-6-mèthoxypyridin-3-ylamino)-4-{[(5-methylfuran-2-yl)-(3-methyloxetan-3-yl)methyl]amino}cyclobut-3-ene-1,2-dione] |
| 5220 | 502 | Cc1ccc(C(Nc2c(Nc3ccc(Cl)nc3O)c(=O)c2=O)C2(C)COC2)o1 (stereo not shown) [Example 40, 3-(6-chloro-2-hydroxypyridin-3-ylamino)-4-{[(5-methylfuran-2-yl)-(3-methyloxetan-3-yl)methyl]amino}cyclobut-3-ene-1,2-dione] |
|  | 311 | Cc1ccc(C(Nc2c(Nc3cccc(C#N)c3O)c(=O)c2=O)C2(C)COC2)o1 (stereo not shown) [Example 42, 2-hydroxy-3-(2-{[(5-methylfuran-2-yl)-(3-methyloxetan-3-yl)methyl]amino}-3,4-dioxocyclobut-1-enylamino)benzonitrile] |
| 566 | 26 | Cc1ccc([C@H](Nc2c(Nc3cccc(C(=O)N(C)CC(F)(F)F)c3O)c(=O)c2=O)C2(C)COC2)o1 [Example 48, 2-hydroxy-N-methyl-3-(2-{[(R)-(5-methylfuran-2-yl)-(3-methyloxetan-3-yl)methyl]amino}-3,4-dioxocyclobut-1-enylamino)-N-(2,2,2-trifluoroethyl)benzamide] |

| SMILES | IC50 [1] [nM] | IC50 [2] [nM] |
| --- | --- | --- |
| Cc1ccc(C(Nc2c(Nc3cccc(C(=O)C(C)C)c3O)c(=O)c2=O)C2(C)COC2)o1 (stereo not shown) [Example 12, 3-(2-hydroxy-3-isobutyrylphenylamino)-4-{[(5-methylfuran-2-yl)-(3-methyloxetan-3-yl)methyl]amino}cyclobut-3-ene-1,2-dione] | 10000 | 100 |
